In general, IC50 refers to the midpoint of a concentration-inhibition curve. The term CC50 denotes the concentration giving 50% cytotoxicity. As a reminder, the GI50 is the concentration giving 50% growth inhibition. In general, inhibition refers to the share of the control response that was lost under treatment.

Series [1] deals with A549. As to the kind of experiment: Antiproliferative activity against human A549 cells. It is filed as functional, cell-based.
Series [2] deals with MCF7. As to the kind of experiment: Antiproliferative activity against human MCF7 cells. It is filed as functional, cell-based.
The target of series [3] is Cholinesterase (Homo sapiens, UniProt P06276). As to the kind of experiment: Inhibition of human BChE.
Sequence of Cholinesterase (Homo sapiens, UniProt P06276) (P06276 whole entry): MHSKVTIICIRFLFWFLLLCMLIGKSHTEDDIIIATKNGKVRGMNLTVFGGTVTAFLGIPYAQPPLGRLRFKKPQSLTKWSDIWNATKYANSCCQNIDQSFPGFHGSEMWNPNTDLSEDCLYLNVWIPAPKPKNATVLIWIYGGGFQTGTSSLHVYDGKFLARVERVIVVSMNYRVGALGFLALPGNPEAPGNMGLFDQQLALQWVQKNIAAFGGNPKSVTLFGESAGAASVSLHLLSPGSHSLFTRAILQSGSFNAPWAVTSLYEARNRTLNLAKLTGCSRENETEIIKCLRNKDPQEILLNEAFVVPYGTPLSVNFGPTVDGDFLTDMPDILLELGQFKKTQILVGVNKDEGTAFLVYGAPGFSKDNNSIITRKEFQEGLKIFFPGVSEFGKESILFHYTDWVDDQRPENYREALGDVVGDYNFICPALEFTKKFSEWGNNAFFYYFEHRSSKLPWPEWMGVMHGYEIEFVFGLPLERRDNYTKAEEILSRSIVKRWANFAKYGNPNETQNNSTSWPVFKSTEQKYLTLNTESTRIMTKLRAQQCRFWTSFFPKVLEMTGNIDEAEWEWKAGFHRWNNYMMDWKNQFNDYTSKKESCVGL
Series [4] addresses Acetylcholinesterase (Homo sapiens, UniProt P22303). Kind of series: Inhibition of human erythrocyte AChE using acetylthiocholine as substrate preincubated for 5 mins followed by substrate addition by Ellman's reagent based spectrophotometric analysis. (In general: Ellman's reagent forms a yellow product with free thiols.)
Series [5] is described as follows: Cytotoxicity against human Huh-7 cells assessed as reduction in cell viability incubated for 2 days by MTT assay. It is filed as toxicity, cell-based. Particulars: time 2 day. A general note: Tetrazolium assays rely on reduction of a dye to a coloured formazan, in cell work by metabolically active cells.
The nature of series [6]: Inhibition of ConA-induced TNF-alpha secretion in female BALB/c mouse splenocyte incubated for 48 hrs by ELISA. It is filed as functional, cell-based.
A short description of series [7]: Inhibition of ConA-induced IL-6 secretion in female BALB/c mouse splenocyte incubated for 48 hrs by ELISA. The format is functional, cell-based. Background: An ELISA detects its analyte on a solid surface through an enzyme-linked reagent.
The nature of series [8]: Inhibition of ConA-induced IL-1beta secretion in female BALB/c mouse splenocyte incubated for 48 hrs by ELISA. It is filed as functional, cell-based.
In series [9] the test system is HepG2. As to the kind of experiment: Antiproliferative activity against human HepG2 cells assessed as reduction in cell proliferation incubated for 24 hrs by MTT assay. The format is functional, cell-based. The following applies: HepG2, 24 h.
The nature of series [10]: Cytotoxicity against MDCK cells assessed as cell growth inhibition incubated for 72 hrs by MTT assay. It is filed as toxicity, cell-based, Canis lupus familiaris. The following applies: dog.
A short description of series [11]: Antiproliferative activity against human Caco-2 cells assessed as cell growth inhibition incubated for 72 hrs by MTT assay. The format is toxicity, cell-based.
The subject of series [12] is HL-60. Kind of series: Cytotoxicity against human HL-60 cells assessed as reduction in cell viability incubated for 24 hrs by MTT assay. It is filed as functional, cell-based. Particulars: HL-60, 24 h.
Series [13] has as its system Jurkat E6.1. As to the kind of experiment: Cytotoxicity against human Jurkat E6.1 cells assessed as reduction in cell viability incubated for 24 hrs by MTT assay. The format is functional, cell-based. The following applies: Jurkat E6.1, 24 h.
Series [14] is described as follows: Cytotoxicity against human A375P cells assessed as cell viability incubated for 72 hrs by alamar blue reagent based assay. It is filed as functional.
The subject of series [15] is Mycobacterium tuberculosis. As to the kind of experiment: Antitubercular activity against Mycobacterium tuberculosis H37Rv assessed as inhibition of bacterial growth at 250 microg/ml relative to control. It is filed as functional.
For series [16], the target named is Acetylcholinesterase (Electrophorus electricus, UniProt O42275). As to the kind of experiment: Inhibition of electric eel AChE using […] as substrate preincubated for 10 mins followed by substrate addition and measured after 5 mins by Ellman's reagent based spectrophotometric analysis.
Sequence of Acetylcholinesterase (Electrophorus electricus, UniProt O42275) (O42275 whole entry): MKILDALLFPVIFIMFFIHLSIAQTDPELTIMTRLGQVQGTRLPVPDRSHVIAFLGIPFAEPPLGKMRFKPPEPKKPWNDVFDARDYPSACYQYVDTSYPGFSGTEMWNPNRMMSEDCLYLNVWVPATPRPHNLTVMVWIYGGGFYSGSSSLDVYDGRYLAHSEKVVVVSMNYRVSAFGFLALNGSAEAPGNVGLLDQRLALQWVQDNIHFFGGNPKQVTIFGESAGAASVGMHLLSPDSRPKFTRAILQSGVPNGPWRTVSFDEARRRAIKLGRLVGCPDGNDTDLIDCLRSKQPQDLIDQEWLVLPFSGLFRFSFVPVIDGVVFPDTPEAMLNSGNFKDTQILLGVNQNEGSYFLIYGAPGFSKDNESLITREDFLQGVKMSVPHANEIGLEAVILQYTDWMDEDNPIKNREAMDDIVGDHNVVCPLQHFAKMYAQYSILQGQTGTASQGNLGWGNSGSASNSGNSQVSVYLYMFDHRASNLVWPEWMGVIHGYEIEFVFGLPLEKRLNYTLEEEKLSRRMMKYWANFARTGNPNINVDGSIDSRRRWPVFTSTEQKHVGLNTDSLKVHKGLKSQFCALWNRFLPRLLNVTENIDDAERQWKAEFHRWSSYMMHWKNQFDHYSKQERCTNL
In series [17] the target is Cholinesterase (Equus caballus, UniProt P81908). As to the kind of experiment: Inhibition of equine serum BChE using […] as substrate preincubated for 10 mins followed by substrate addition and measured after 5 mins by Ellman's reagent based spectrophotometric analysis.
Sequence of Cholinesterase (Equus caballus, UniProt P81908) (P81908 whole entry): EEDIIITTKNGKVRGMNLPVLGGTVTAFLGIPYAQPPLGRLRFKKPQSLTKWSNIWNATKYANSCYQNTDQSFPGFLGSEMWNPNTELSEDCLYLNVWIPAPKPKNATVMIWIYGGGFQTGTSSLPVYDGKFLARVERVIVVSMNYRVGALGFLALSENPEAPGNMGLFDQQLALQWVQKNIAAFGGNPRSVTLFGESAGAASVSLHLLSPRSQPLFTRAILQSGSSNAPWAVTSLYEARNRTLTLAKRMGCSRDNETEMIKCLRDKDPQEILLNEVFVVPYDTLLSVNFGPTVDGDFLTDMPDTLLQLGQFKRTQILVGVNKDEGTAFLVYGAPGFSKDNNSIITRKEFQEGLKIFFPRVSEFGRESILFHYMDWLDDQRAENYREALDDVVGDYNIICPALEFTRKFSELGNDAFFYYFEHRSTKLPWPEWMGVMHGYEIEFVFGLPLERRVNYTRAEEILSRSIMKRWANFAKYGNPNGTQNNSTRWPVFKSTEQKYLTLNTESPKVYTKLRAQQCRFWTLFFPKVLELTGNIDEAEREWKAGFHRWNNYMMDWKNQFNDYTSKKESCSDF

Each structure is given as a SMILES string.

Sequence of Acetylcholinesterase (Homo sapiens, UniProt P22303) (P22303 whole entry): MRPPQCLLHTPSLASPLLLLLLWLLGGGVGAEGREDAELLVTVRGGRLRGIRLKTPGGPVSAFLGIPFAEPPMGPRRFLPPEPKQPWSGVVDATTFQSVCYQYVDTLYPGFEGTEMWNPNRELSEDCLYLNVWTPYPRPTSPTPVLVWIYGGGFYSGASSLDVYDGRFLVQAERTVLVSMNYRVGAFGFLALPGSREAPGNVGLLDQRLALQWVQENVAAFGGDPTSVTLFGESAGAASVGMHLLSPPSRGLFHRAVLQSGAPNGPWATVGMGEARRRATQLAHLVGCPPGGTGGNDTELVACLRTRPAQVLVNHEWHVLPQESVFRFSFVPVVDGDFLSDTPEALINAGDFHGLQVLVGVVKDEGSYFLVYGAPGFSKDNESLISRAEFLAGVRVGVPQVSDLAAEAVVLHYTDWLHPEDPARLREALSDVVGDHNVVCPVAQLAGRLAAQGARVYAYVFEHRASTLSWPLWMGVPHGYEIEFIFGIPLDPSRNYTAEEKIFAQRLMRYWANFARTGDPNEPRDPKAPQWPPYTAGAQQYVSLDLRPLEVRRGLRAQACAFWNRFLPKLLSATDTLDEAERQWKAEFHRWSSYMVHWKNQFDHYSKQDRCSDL

For `CC(=O)n1c2ccccc2c(=O)c2c(-n3ccnc3)nc3ccc(Br)cc3c21`, the IC50 in [1] stood at 440 nM; in series [2] it was 620 nM.
As for `Cc1ccc(S(=O)(=O)NCCCCCNc2c3c(nc4ccccc24)CCCC3)cc1`, the IC50 in series [3] turned out to be 68 nM; in series [4], 62 nM.
For the compound `CCN(CCCC(C)Nc1ccnc2cc(Cl)ccc12)CCNC(=O)C(F)(F)C1CCN(CC(O)C(F)(F)F)CC1` (stereo not given), the CC50 at 48 h in series [5] was found to be 16700 nM. In addition, the figures for the IC50 in series [6], in series [7] and in series [8] were 15900 nM, 1600 nM and 720 nM, respectively.
For the compound `O=C(N/N=C/c1nc2ccccc2[nH]1)c1ccc(Nc2ccnc3ccccc23)cc1`, the IC50 in series [9] is over 80000 nM.
Regarding `Clc1ccc2c(N3CCN(c4ccc(-c5nc6ccccc6[nH]5)cc4)CC3)ccnc2c1`, the IC50 at 72 h in series [10] is over 100000 nM. In series [11], the GI50 at 72 h is over 100000 nM.
Consider `CCN(CCCC(C)Nc1ccnc2cc(Cl)ccc12)CCNC(=O)C(F)(F)C1CCN(C(=O)C2OC(OC)C3OC(C)(C)OC23)CC1` (stereo not given), for which the CC50 at 48 h in series [5] came out at 16900 nM. The values for the IC50 in series [6], in [7] and in [8] were 4410 nM, 1870 nM and 1190 nM, respectively.
On to `Clc1ccc2c(Nc3cccc(-c4nc5ccccc5[nH]4)c3)ccnc2c1`, for which, in [10], the IC50 at 72 h is 20400 nM. The GI50 at 72 h in [11] came out at 1000 nM.
For the compound `Clc1ccc(C2CC(c3ccc(Nc4ccnc5cc(Cl)ccc45)cc3)=NN2)cc1` (stereo not given), the concentration for half-maximal inhibition (IC50) in series [12] amounted to 6170 nM; in series [13] it was 6310 nM.
`Clc1ccc2c(NCCCN(CCCCN(CCCNc3ccnc4cc(Cl)ccc34)Cc3ccccc3)Cc3ccccc3)ccnc2c1`: in series [14], the IC50 was 269 nM.
Regarding `CO[C@H]1/C=C/O[C@@]2(C)Oc3c(C)c(O)c4c(O)c(c(/C=N/N5CCN(C)CC5)c(O)c4c3C2=O)NC(=O)/C(C)=C\C=C\[C@H](C)[C@H](O)[C@@H](C)[C@@H](O)[C@@H](C)[C@H](OC(C)=O)[C@@H]1C` [RIFAMPIN], in series [15], the inhibition at 250 µg/mL came to 98%.
Regarding `COc1ccc(C2CC(c3cccc(Nc4ccnc5cc(Cl)ccc45)c3)=NN2)cc1OC` (stereo not given), the IC50 in [12] was found to be 940 nM; in series [13], 3170 nM.
As for `Oc1ccccc1CNCCNc1ccnc2cc(Cl)ccc12`, the IC50 in series [16] came out at 1970 nM; in [17], 30300 nM.
For `Cc1ccc(CNCCCCCCNc2ccnc3cc(Cl)ccc23)c(O)c1`, the values for the IC50 in series [16] and in series [17] were 260 nM and 1580 nM, respectively.
`CCN(CCO)CCCC(C)Nc1ccnc2cc(Cl)ccc12` (stereo not given) [HYDROXYCHLOROQUINE]: the IC50 in series [6] was 10000 nM; in series [7], 16500 nM; in series [8] it was 3510 nM.
For the compound `COc1cc(/C=C/C(=O)c2cccc(Nc3ccnc4cc(Cl)ccc34)c2)cc(OC)c1OC`, the figures for the IC50 in series [12] and in [13] were 2150 nM and 1930 nM, respectively.
For the compound `Cc1ncsc1/C=N/NC(=O)c1ccc(Nc2ccnc3ccccc23)cc1`, the IC50 in series [9] was over 80000 nM.
As to `CC(C)(C)c1ccc(/C=N/CCNc2c3c(nc4ccccc24)CCCCC3)c(C(C)(C)C)c1O`, the IC50 in [3] amounted to 419 nM; in [4], 4030 nM.
With `C=CC1(O)c2ccccc2Nc2c1c(-n1ccnc1)nc1ccc(Br)cc21` (stereo not given), the IC50 in series [1] came out at 690 nM; in [2] it was 540 nM.
Take `CC(C)(C)c1ccc(CNCCNc2c3c(nc4ccccc24)CCCCC3)c(C(C)(C)C)c1O`: the IC50 in series [3] turned out to be 84 nM; in series [4] it was 1900 nM.
Take `O=C(NCCNc1ccnc2cc(Cl)ccc12)c1ccc(-c2nc3ccccc3[nH]2)cc1`: the IC50 at 72 h in [10] was found to be 100000 nM. In addition, the GI50 at 72 h in series [11] was 16400 nM.
Consider `CCN(CCCC(C)Nc1ccnc2cc(Cl)ccc12)CCNC(=O)C(F)(F)C1CCN(CCOCCOC)CC1` (stereo not given), for which the CC50 at 48 h in [5] amounted to 5750 nM. Moreover, the 50% inhibitory concentration (IC50) in series [6] was found to be 24400 nM; in [7], 2520 nM; in [8], 1810 nM.
Turning to `COc1ccc(/C=C/C(=O)c2ccc(Nc3ccnc4cc(Cl)ccc34)cc2)c(OC)c1`, the IC50 is 13500 nM in series [12] and 10400 nM in [13].
With `Cc1ccc(S(=O)(=O)NCCCCNc2c3c(nc4ccccc24)CCCC3)cc1`, in series [3], half-maximal inhibition (IC50) required 131 nM.
On to `Oc1ccccc1/C=N/CCCCCCNc1ccnc2cc(Cl)ccc12`, for which the IC50 came out at 730 nM in series [16] and 58400 nM in [17].

The record behind these values is ChEMBL document CHEMBL6177931, “Exploring diverse frontiers: Advancements of bioactive 4-aminoquinoline-based molecular hybrids in targeted therapeutics and beyond” (Eur J Med Chem, 2024).
